Like-named read-outs stand apart in the source and are kept apart here.
Columns and labels:
ZO-1 [1] = format: cell-based, rat
claudin-5 [2] = format: cell-based, rat
rat in vitro-BBB model [3] = system: rat in vitro-BBB model
rat in vitro-BBB model [4] = details: 24 h
ZO-1 [5] = format: cell-based, rat; details: 2 μM
claudin-5 [6] = format: cell-based, rat; details: 2 μM
rat in vitro-BBB model [7] = format: cell-based
mouse brain slices = details: cited from earlier work
[8] = mouse, in vivo; cited from earlier work

Q: For C[As](O)O [MMA^III, monomethylarsonous acid], which ZO-1/β-actin (ZO-1 [1]; 0.1 μM, 6 h) is on record?
A: Its ZO-1/β-actin is 48.7 ± 25.7.

Q: And the “ZO-1/β-actin ratio for control” value (ZO-1 [1]; 0.1 μM, 6 h)?
A: The value was 0.60 ± 0.25.

Q: And the ZO-1/β-actin (ZO-1 [1]; 0.1 μM, 24 h)?
A: The ZO-1/β-actin was 41.0 ± 24.5.

Q: What about the “ZO-1/β-actin ratio for control” value (ZO-1 [1]; 0.1 μM, 24 h) of the same compound?
A: Its value is 0.54 ± 0.33.

Q: And the ZO-1/β-actin (ZO-1 [1]; 1 μM, 6 h)?
A: Its ZO-1/β-actin is 44.7 ± 26.2.

Q: And the “ZO-1/β-actin ratio for control” value (ZO-1 [1]; 1 μM, 6 h)?
A: The value was 0.55 ± 0.26.

Q: What about the ZO-1/β-actin (ZO-1 [1]; 1 μM, 24 h) of the same compound?
A: Its ZO-1/β-actin is 71.6 ± 15.1.

Q: And the “ZO-1/β-actin ratio for control” value (ZO-1 [1]; 1 μM, 24 h)?
A: The value was 0.93 ± 0.19.

Q: And the ZO-1/β-actin (ZO-1 [1]; 2 μM, 6 h)?
A: The ZO-1/β-actin was 16.6 ± 5.59.

Q: And the “ZO-1/β-actin ratio for control” value (ZO-1 [1]; 2 μM, 6 h)?
A: The value was 0.23 ± 0.15.

Q: And the ZO-1/β-actin (ZO-1 [1]; 2 μM, 24 h)?
A: Its ZO-1/β-actin is 28.7 ± 13.3.

Q: And the “ZO-1/β-actin ratio for control” value (ZO-1 [1]; 2 μM, 24 h)?
A: Its value is 0.37 ± 0.15.

Q: What about the Claudin-5/β-actin (claudin-5 [2]; 0.1 μM, 6 h) of the same compound?
A: Its Claudin-5/β-actin is 30.5 ± 3.26.

Q: And the “Claudin-5/β-actin ratio for control” value (claudin-5 [2]; 0.1 μM, 6 h)?
A: The value was 0.45 ± 0.19.

Q: What about the Claudin-5/β-actin (claudin-5 [2]; 0.1 μM, 24 h) of the same compound?
A: Its Claudin-5/β-actin is 34.1 ± 25.6.

Q: And the “Claudin-5/β-actin ratio for control” value (claudin-5 [2]; 0.1 μM, 24 h)?
A: Its value is 0.37 ± 0.23.

Q: And the Claudin-5/β-actin (claudin-5 [2]; 1 μM, 6 h)?
A: The Claudin-5/β-actin was 25.8 ± 16.7.

Q: And the “Claudin-5/β-actin ratio for control” value (claudin-5 [2]; 1 μM, 6 h)?
A: The value was 0.35 ± 0.16.

Q: What about the Claudin-5/β-actin (claudin-5 [2]; 1 μM, 24 h) of the same compound?
A: Its Claudin-5/β-actin is 14.5 ± 4.52.

Q: And the “Claudin-5/β-actin ratio for control” value (claudin-5 [2]; 1 μM, 24 h)?
A: The value was 0.16 ± 0.06.

Q: What about the Claudin-5/β-actin (claudin-5 [2]; 2 μM, 6 h) of the same compound?
A: The Claudin-5/β-actin was 9.38 ± 5.97.

Q: What about the “Claudin-5/β-actin ratio for control” value (claudin-5 [2]; 2 μM, 6 h) of the same compound?
A: Its value is 0.16 ± 0.15.

Q: What about the Claudin-5/β-actin (claudin-5 [2]; 2 μM, 24 h) of the same compound?
A: Its Claudin-5/β-actin is 4.68 ± 1.30.

Q: And the “Claudin-5/β-actin ratio for control” value (claudin-5 [2]; 2 μM, 24 h)?
A: The value was 0.05 ± 0.02.

Q: And the “detection of dimethylarsinous acid as metabolite” value (rat in vitro-BBB model [3])?
A: The value was “no dimethylarsinous acid was detected”.

Q: What about the “fraction oxidized or methylated (converted, detoxified) within the BBB” value (rat in vitro-BBB model [3]) of the same compound?
A: Its value is “Approximately 65%”.

Q: And the “Penetration rate (%) DMA^V” value (rat in vitro-BBB model [3]; 0–6 h)?
A: Its value is 4.03±0.52%.

Q: And the “Penetration rate (%) MMA^III” value (rat in vitro-BBB model [3]; 0–6 h)?
A: Its value is 7.63±0.79%.

Q: And the “Penetration rate (%) MMA^V” value (rat in vitro-BBB model [3]; 0–6 h)?
A: Its value is 8.27±1.55%.

Q: What about the “percentage of arsenic in total penetration rate: DMA^V” value (rat in vitro-BBB model [3]; 0–6 h) of the same compound?
A: Its value is “(28.5) %”.

Q: What about the “Penetration rate (%) DMA^V” value (rat in vitro-BBB model [3]; 0–24 h) of the same compound?
A: Its value is 9.01±0.14%.

Q: What about the “Penetration rate (%) MMA^III” value (rat in vitro-BBB model [3]; 0–24 h) of the same compound?
A: Its value is 13.7±5.09%.

Q: What about the “Penetration rate (%) MMA^V” value (rat in vitro-BBB model [3]; 0–24 h) of the same compound?
A: The value was 27.9±3.59%.

Q: What about the “percentage of arsenic in total penetration rate: DMA^V” value (rat in vitro-BBB model [3]; 0–24 h) of the same compound?
A: The value was “(21.4) %”.

Q: What about the “Papp of sodium fluorescein” value (rat in vitro-BBB model [4]; 0.1 μM) of the same compound?
A: The value was 1.90 ± 0.17 x 10-6 cm2/s.

Q: And the “Papp of sodium fluorescein” value (rat in vitro-BBB model [4]; 1 μM)?
A: Its value is 2.78 ± 0.28 x 10-6 cm2/s.

Q: And the “Na-F values elevated compared to the control group” value (rat in vitro-BBB model [4]; 2 μM)?
A: The value was “approximately 16 fold”.

Q: And the “Papp of sodium fluorescein” value (rat in vitro-BBB model [4]; 2 μM)?
A: The value was 34.0 ± 4.97 x 10-6 cm2/s.

Q: And the “% ZO-1 Area for control” value (ZO-1 [5]; 6 h)?
A: Its value is 55.0 ± 11.2%.

Q: And the “% ZO-1 Area for control” value (ZO-1 [5]; 24 h)?
A: The value was 59.1 ± 9.76%.

Q: What about the “% Claudin-5 Area for control” value (claudin-5 [6]; 6 h) of the same compound?
A: The value was 46.6 ± 12.6%.

Q: What about the “% Claudin-5 Area for control” value (claudin-5 [6]; 24 h) of the same compound?
A: The value was 37.2 ± 11.4%.

Q: And the “%TEER” value (rat in vitro-BBB model [7]; 0.1 μM, 6 h)?
A: Its value is 109.7 ± 16.6%.

Q: What about the “%TEER” value (rat in vitro-BBB model [7]; 0.1 μM, 24 h) of the same compound?
A: Its value is 87.9 ± 13.0%.

Q: What about the “%TEER” value (rat in vitro-BBB model [7]; 1 μM, 6 h) of the same compound?
A: Its value is 61.6 ± 6.19%.

Q: What about the “%TEER” value (rat in vitro-BBB model [7]; 1 μM, 24 h) of the same compound?
A: The value was 45.6 ± 2.09%.

Q: What about the “%TEER” value (rat in vitro-BBB model [7]; 2 μM, 6 h) of the same compound?
A: The value was 9.17 ± 4.62%.

Q: And the “%TEER” value (rat in vitro-BBB model [7]; 2 μM, 24 h)?
A: Its value is 3.31 ± 0.67%.

Q: With O=[As][O-].[Na+] [sodium arsenite] as the compound, how does the “DMA^V formation in mouse brain slices” value (mouse brain slices) read?
A: The value was “DMA^V was detected”.

Q: What about the “DMA^V in brain tissue” value [8] of the same compound?
A: The value was “presence of DMA^V”.
